{"source": "the supplement of paper PMC10307832", "assay_in_all_cases": "relative viability (nuclei count vs DMSO), 5 days (fraction); higher = more cells survive", "key": {"[1]": {"compound": "C=CCNC1=C2C[C@@H](C)C[C@H](OC)[C@H](O)[C@@H](C)/C=C(\\C)[C@H](OC(N)=O)[C@@H](OC)/C=C\\C=C(/C)C(=O)NC(=CC1=O)C2=O [17-AAG] + Cc1cc(Nc2cc(N3CCN(C)CC3)nc(Sc3ccc(NC(=O)C4CC4)cc3)n2)n[nH]1 [Tozasertib] (partner 0.1 µM)", "how_it_was_run": "(§1)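 The day after seeding in 1536-well plates, lung cancer cell lines were treated by pin tool with a single drug, or with a fixed anchor-drug dose together with five library-drug doses (not always all listed) in √10 steps. After 5 days, a combined fix-and-stain solution (final 0.05% Triton X-100, 1% formaldehyde, 1 ug/ml Hoechst) was added. Nuclei counted on 4× images gave relative viability as treated counts over vehicle counts, reported as the median of duplicate plates.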"}, "[2]": {"compound": "C=CCNC1=C2C[C@@H](C)C[C@H](OC)[C@H](O)[C@@H](C)/C=C(\\C)[C@H](OC(N)=O)[C@@H](OC)/C=C\\C=C(/C)C(=O)NC(=CC1=O)C2=O [17-AAG] + Cc1nc(Nc2ncc(C(=O)Nc3c(C)cccc3Cl)s2)cc(N2CCN(CCO)CC2)n1 [Dasatinib] (partner 0.075 µM)", "how_it_was_run": "as §1"}, "[3]": {"compound": "C=CCNC1=C2C[C@@H](C)C[C@H](OC)[C@H](O)[C@@H](C)/C=C(\\C)[C@H](OC(N)=O)[C@@H](OC)/C=C\\C=C(/C)C(=O)NC(=CC1=O)C2=O [17-AAG] + CCNC(=O)c1noc(-c2cc(C(C)C)c(O)cc2O)c1-c1ccc(CN2CCOCC2)cc1 [Luminespib] (partner 0.01 µM)", "how_it_was_run": "as §1"}, "[4]": {"compound": "C=CCNC1=C2C[C@@H](C)C[C@H](OC)[C@H](O)[C@@H](C)/C=C(\\C)[C@H](OC(N)=O)[C@@H](OC)/C=C\\C=C(/C)C(=O)NC(=CC1=O)C2=O [17-AAG] + N=C(N)NC(=N)NCCc1ccccc1 [Phenformin] (partner 250 µM)", "how_it_was_run": "as §1"}, "[5]": {"compound": "C=CCNC1=C2C[C@@H](C)C[C@H](OC)[C@H](O)[C@@H](C)/C=C(\\C)[C@H](OC(N)=O)[C@@H](OC)/C=C\\C=C(/C)C(=O)NC(=CC1=O)C2=O [17-AAG] + COc1cccc2cc(-c3nc([C@H]4CC[C@H](C(=O)O)CC4)n4ncnc(N)c34)[nH]c12 [OSI-027] (partner 0.5 µM)", "how_it_was_run": "as §1"}, "[6]": {"compound": "C=CCNC1=C2C[C@@H](C)C[C@H](OC)[C@H](O)[C@@H](C)/C=C(\\C)[C@H](OC(N)=O)[C@@H](OC)/C=C\\C=C(/C)C(=O)NC(=CC1=O)C2=O [17-AAG] + COc1cc2c(Oc3ccc(NC(=O)C4(C(=O)Nc5ccc(F)cc5)CC4)cc3F)ccnc2cc1OCCCN1CCOCC1 [Foretinib] (partner 0.25 µM)", "how_it_was_run": "as §1"}, "[7]": {"compound": "C=CCNC1=C2C[C@@H](C)C[C@H](OC)[C@H](O)[C@@H](C)/C=C(\\C)[C@H](OC(N)=O)[C@@H](OC)/C=C\\C=C(/C)C(=O)NC(=CC1=O)C2=O [17-AAG]", "how_it_was_run": "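Five library-drug doses, separated by factors of √10, were pinned into 1536-well plates holding lung cancer cell lines after an overnight stay at 37 °C. Cells were fixed, permeabilised and Hoechst-stained in one step after 5 days without medium change, then imaged at 4×. Viability compares treated-well with vehicle-well nuclei, counted in MetaXpress, as a median across plates. Passing plates had control CV below 25% and at least one doubling.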"}}}
{"cell line": "NCI-H1623", "values": [{"measurement": "relative viability", "setting": "[1]; first compound 0.00128 µM", "result": 0.412}, {"measurement": "relative viability", "setting": "[1]; first compound 0.004048 µM", "result": 0.401}, {"measurement": "relative viability", "setting": "[1]; first compound 0.0128 µM", "result": 0.497}, {"measurement": "relative viability", "setting": "[1]; first compound 0.04048 µM", "result": 0.261}, {"measurement": "relative viability", "setting": "[1]; first compound 0.128 µM", "result": 0.31}, {"measurement": "relative viability", "setting": "[2]; first compound 0.00128 µM", "result": 0.625}, {"measurement": "relative viability", "setting": "[2]; first compound 0.004048 µM", "result": 0.351}, {"measurement": "relative viability", "setting": "[2]; first compound 0.0128 µM", "result": 0.284}, {"measurement": "relative viability", "setting": "[2]; first compound 0.04048 µM", "result": 0.265}, {"measurement": "relative viability", "setting": "[2]; first compound 0.128 µM", "result": 0.284}, {"measurement": "relative viability", "setting": "[3]; first compound 0.00128 µM", "result": 0.555}, {"measurement": "relative viability", "setting": "[3]; first compound 0.004048 µM", "result": 0.369}, {"measurement": "relative viability", "setting": "[3]; first compound 0.0128 µM", "result": 0.283}, {"measurement": "relative viability", "setting": "[3]; first compound 0.04048 µM", "result": 0.273}, {"measurement": "relative viability", "setting": "[3]; first compound 0.128 µM", "result": 0.267}, {"measurement": "relative viability", "setting": "[4]; first compound 0.00128 µM", "result": 0.614}, {"measurement": "relative viability", "setting": "[4]; first compound 0.004048 µM", "result": 0.369}, {"measurement": "relative viability", "setting": "[4]; first compound 0.0128 µM", "result": 0.323}, {"measurement": "relative viability", "setting": "[4]; first compound 0.04048 µM", "result": 0.268}, {"measurement": "relative viability", "setting": "[4]; first compound 0.128 µM", "result": 0.285}, {"measurement": "relative viability", "setting": "[5]; first compound 0.00128 µM", "result": 0.475}, {"measurement": "relative viability", "setting": "[5]; first compound 0.004048 µM", "result": 0.463}, {"measurement": "relative viability", "setting": "[5]; first compound 0.0128 µM", "result": 0.33}, {"measurement": "relative viability", "setting": "[5]; first compound 0.04048 µM", "result": 0.254}, {"measurement": "relative viability", "setting": "[5]; first compound 0.128 µM", "result": 0.33}, {"measurement": "relative viability", "setting": "[6]; first compound 0.00128 µM", "result": 0.87}, {"measurement": "relative viability", "setting": "[6]; first compound 0.004048 µM", "result": 0.695}, {"measurement": "relative viability", "setting": "[6]; first compound 0.0128 µM", "result": 0.491}, {"measurement": "relative viability", "setting": "[6]; first compound 0.04048 µM", "result": 0.304}, {"measurement": "relative viability", "setting": "[6]; first compound 0.128 µM", "result": 0.336}, {"measurement": "relative viability", "setting": "[7]; 0.00128 µM", "result": 0.978}, {"measurement": "relative viability", "setting": "[7]; 0.004048 µM", "result": 0.919}, {"measurement": "relative viability", "setting": "[7]; 0.0128 µM", "result": 0.755}, {"measurement": "relative viability", "setting": "[7]; 0.04048 µM", "result": 0.31}, {"measurement": "relative viability", "setting": "[7]; 0.128 µM", "result": 0.383}]}
